From patent publication US20220033397A1, “PHARMACEUTICAL COMPOUNDS AND THEIR USE AS INHIBITORS OF UBIQUITIN SPECIFIC PROTEASE 19 (USP19)” (ALMAC DISCOVERY LIMITED, priority 2018, published 2022)

Target: T1, Full-length USP19 (Homo sapiens, UniProt O94966)
T1 construct: Full-length USP19 was purchased from Boston Biochem (E-576); purchased Boston Biochem E-576
T1 sequence (O94966 1-1318): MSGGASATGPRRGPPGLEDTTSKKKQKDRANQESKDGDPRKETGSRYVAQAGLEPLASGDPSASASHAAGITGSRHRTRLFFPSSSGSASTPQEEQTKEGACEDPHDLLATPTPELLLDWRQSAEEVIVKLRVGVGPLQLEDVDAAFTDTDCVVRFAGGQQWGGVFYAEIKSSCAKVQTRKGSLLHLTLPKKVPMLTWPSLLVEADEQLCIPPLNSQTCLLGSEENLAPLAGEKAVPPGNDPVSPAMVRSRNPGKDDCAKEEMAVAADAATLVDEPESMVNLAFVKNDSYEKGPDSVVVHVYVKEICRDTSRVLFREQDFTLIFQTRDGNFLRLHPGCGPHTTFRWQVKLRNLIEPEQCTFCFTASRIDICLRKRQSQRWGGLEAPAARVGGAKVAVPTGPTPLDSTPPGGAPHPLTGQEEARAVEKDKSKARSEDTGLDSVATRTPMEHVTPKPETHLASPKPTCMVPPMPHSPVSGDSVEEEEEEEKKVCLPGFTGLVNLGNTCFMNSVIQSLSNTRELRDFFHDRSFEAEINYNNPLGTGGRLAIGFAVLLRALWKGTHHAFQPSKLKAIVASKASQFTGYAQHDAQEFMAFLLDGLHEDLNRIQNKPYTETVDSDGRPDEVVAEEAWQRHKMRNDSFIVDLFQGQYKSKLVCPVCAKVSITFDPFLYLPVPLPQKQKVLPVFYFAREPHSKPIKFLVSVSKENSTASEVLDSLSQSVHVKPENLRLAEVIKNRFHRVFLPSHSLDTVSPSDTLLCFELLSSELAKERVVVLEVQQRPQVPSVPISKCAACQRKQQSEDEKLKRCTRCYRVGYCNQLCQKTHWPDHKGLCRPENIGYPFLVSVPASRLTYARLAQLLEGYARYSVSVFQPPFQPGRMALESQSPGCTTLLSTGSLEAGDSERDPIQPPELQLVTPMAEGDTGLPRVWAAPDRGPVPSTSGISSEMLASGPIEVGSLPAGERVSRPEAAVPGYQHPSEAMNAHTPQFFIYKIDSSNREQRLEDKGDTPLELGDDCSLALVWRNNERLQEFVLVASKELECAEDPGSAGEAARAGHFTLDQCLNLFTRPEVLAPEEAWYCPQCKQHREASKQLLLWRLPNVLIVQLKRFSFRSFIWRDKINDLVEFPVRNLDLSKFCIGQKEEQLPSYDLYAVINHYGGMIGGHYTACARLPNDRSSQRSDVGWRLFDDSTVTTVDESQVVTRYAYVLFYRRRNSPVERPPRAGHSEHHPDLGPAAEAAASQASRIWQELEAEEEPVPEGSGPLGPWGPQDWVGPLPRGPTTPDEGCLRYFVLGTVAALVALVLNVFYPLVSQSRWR
Test: USP19 fluorescence polarisation (FP) homogeneous assay with Ubiquitin-Lys-TAMRA substrate
Type: biochemical
Conditions: 2.5 nM USP19, 30 min pre-incubation, average of at least two duplicate experiments
Procedure, shortened: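 Full-length USP19 preincubated 30 min at RT with inhibitor (200 μM to 2 μM series, 8–18 points) before adding 500 nM Ubiquitin-Lys-TAMRA substrate.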

SMILES	IC50 [nM]
CSc1ncc2c(=O)n(CC3(O)CCN(C(=O)[C@H](C)CC(F)(F)F)CC34CCCC4)n(C)c2n1 (stereo partly drawn) [Example 64, 2-((10-Hydroxy-7-((R)-4,4,4-trifluoro-2-methylbutanoyl)-7-azaspiro[4.5]decan-10-yl)methyl)-1-methyl-6-(methylthio)-1,2-dihydro-3H-pyrazolo[3,4-d]pyrimidin-3-one]	500 to 5000
C[C@H](CC1CCCCC1)C(=O)N1CCC(O)(Cn2cc(S(C)(=N)=O)c(Cl)cc2=O)C(C)(C)C1 (stereo partly drawn) [Example 67, 4-Chloro-1-((1-((R)-3-cyclohexyl-2-methylpropanoyl)-4-hydroxy-3,3-dimethylpiperidin-4-yl)methyl)-5-(S-methylsulfonimidoyl)pyridin-2(1H)-one]	500 to 5000
C[C@H](CC1CCCCC1)C(=O)N1CCC(O)(Cn2cc(S(C)(=N)=O)c(-c3ccccc3)cc2=O)C(C)(C)C1 (stereo partly drawn) [Example 68, 1-((1-((R)-3-Cyclohexyl-2-methylpropanoyl)-4-hydroxy-3,3-dimethylpiperidin-4-yl)methyl)-5-(S-methylsulfonimidoyl)-4-phenylpyridin-2(1H)-one]	500 to 5000
C[C@H](CC1CCCCC1)C(=O)N1CCC(O)(Cn2cc(N=S(C)(C)=O)c(-c3ccccc3)cc2=O)C2(CCCC2)C1 (stereo partly drawn) [Example 72, 1-((7-((R)-3-Cyclohexyl-2-methylpropanoyl)-10-hydroxy-7-azaspiro[4.5]decan-10-yl)methyl)-5-((dimethyl(oxo)-λ^6-sulfaneylidene)amino)-4-phenylpyridin-2(1H)-one]	< 500
C[C@H](CC1CCCCC1)C(=O)N1CCC(O)(Cn2cc(-c3ccccc3)c(N=S(C)(C)=O)cc2=O)C2(CCCC2)C1 (stereo partly drawn) [Example 73, 1-((7-((R)-3-Cyclohexyl-2-methylpropanoyl)-10-hydroxy-7-azaspiro[4.5]decan-10-yl)methyl)-4-((dimethyl(oxo)-λ^6-sulfaneylidene)amino)-5-phenylpyridin-2(1H)-one]	500 to 5000
C[C@H](CC(F)(F)F)C(=O)N1CCC(O)(Cn2cc(N=S(C)(C)=O)c(-c3ccccc3)cc2=O)C2(CCCC2)C1 (stereo partly drawn) [Example 75, 5-((Dimethyl(oxo)-λ^6-sulfaneylidene)amino)-1-((10-hydroxy-7-((R)-4,4,4-trifluoro-2-methylbutanoyl)-7-azaspiro[4.5]decan-10-yl)methyl)-4-phenylpyridin-2(1H)-one]	< 500
CN(Cc1ccccc1)C(=O)N1CCC(O)(Cn2cnc(-c3ccccc3F)cc2=O)CC1 [Example 81, N-Benzyl-4-((4-(2-fluorophenyl)-6-oxopyrimidin-1(6H)-yl)methyl)-4-hydroxy-N-methylpiperidine-1-carboxamide]	50000 to 250000
CN(C)C(=O)c1cn(CC2(O)CCN(C(=O)N(C)CC3CCCCC3)CC23CCCC3)c(=O)cc1-c1ccccc1 (centres unmarked) [Example 82, N-(Cyclohexylmethyl)-10-((5-(dimethylcarbamoyl)-2-oxo-4-phenylpyridin-1(2H)-yl)methyl)-10-hydroxy-N-methyl-7-azaspiro[4.5]decane-7-carboxamide]	< 500
CN(C)C(=O)c1cn(CC2(O)CCN(C(=O)Oc3ccc([N+](=O)[O-])cc3)CC23CCCC3)c(=O)cc1-c1ccccc1 (centres unmarked) [Example 83, 4-Nitrophenyl 10-((5-(dimethylcarbamoyl)-2-oxo-4-phenylpyridin-1(2H)-yl)methyl)-10-hydroxy-7-azaspiro[4.5]decane-7-carboxylate]	50000 to 250000
CC(C)COC(=O)N1CCC(O)(Cn2cc(C(=O)N(C)C)c(-c3ccccc3)cc2=O)C2(CCCC2)C1 (centres unmarked) [Example 84, Isobutyl 10-((5-(dimethylcarbamoyl)-2-oxo-4-phenylpyridin-1(2H)-yl)methyl)-10-hydroxy-7-azaspiro[4.5]decane-7-carboxylate]	5000 to 50000
CN(C)C(=O)c1cn(CC2(O)CCN(C(=O)NCc3ccccc3)CC23CCCC3)c(=O)cc1-c1ccccc1 (centres unmarked) [Example 85, N-Benzyl-10-((5-(dimethylcarbamoyl)-2-oxo-4-phenylpyridin-1(2H)-yl)methyl)-10-hydroxy-7-azaspiro[4.5]decane-7-carboxamide]	< 500

Other lines, results leading:

IC50 [nM]	SMILES
500 to 5000	C[C@H](CC1CCCCC1)C(=O)N1CCC(O)(Cn2cc(N=S(C)(C)=O)c(Cl)cc2=O)C2(CCCC2)C1 (stereo partly drawn) [Example 69, 4-Chloro-1-((7-((R)-3-cyclohexyl-2-methylpropanoyl)-10-hydroxy-7-azaspiro[4.5]decan-10-yl)methyl)-5-((dimethyl(oxo)-λ^6-sulfaneylidene)amino)pyridin-2(1H)-one]
< 500	C[C@H](CC1CCCCC1)C(=O)N1CCC(O)(Cn2cc([S+](C)[O-])c(Cl)cc2=O)C2(CCCC2)C1 (stereo partly drawn) [Example 70, 4-Chloro-1-((7-((R)-3-cyclohexyl-2-methylpropanoyl)-10-hydroxy-7-azaspiro[4.5]decan-10-yl)methyl)-5-(methylsulfinyl)pyridin-2(1H)-one]
< 500	C[C@H](CC1CCCCC1)C(=O)N1CCC(O)(Cn2cc(S(C)(=N)=O)c(Cl)cc2=O)C2(CCCC2)C1 (stereo partly drawn) [Example 71, 4-Chloro-1-((7-((R)-3-cyclohexyl-2-methylpropanoyl)-10-hydroxy-7-azaspiro[4.5]decan-10-yl)methyl)-5-(S-methylsulfonimidoyl)pyridin-2(1H)-one]
< 500	C[C@H](CC1CCCCC1)C(=O)N1CCC(O)(Cn2cc(S(C)(=N)=O)c(-c3ccccc3)cc2=O)C2(CCCC2)C1 (stereo partly drawn) [Example 74, 1-((7-((R)-3-Cyclohexyl-2-methylpropanoyl)-10-hydroxy-7-azaspiro[4.5]decan-10-yl)methyl)-5-(S-methylsulfonimidoyl)-4-phenylpyridin-2(1H)-one]
< 500	CSc1cn(CC2(O)CCN(C(=O)[C@H](C)CC3CCCCC3)CC23CCCC3)c(=O)cc1Cl (stereo partly drawn) [Example 76, 4-Chloro-1-((7-((R)-3-cyclohexyl-2-methylpropanoyl)-10-hydroxy-7-azaspiro[4.5]decan-10-yl)methyl)-5-(methylthio)pyridin-2(1H)-one]
< 500	C[C@H](CC1CCCCC1)C(=O)N1CCC(O)(Cn2cc(S(C)(=O)=O)c(Cl)cc2=O)C2(CCCC2)C1 (stereo partly drawn) [Example 77, 4-Chloro-1-((7-((R)-3-cyclohexyl-2-methylpropanoyl)-10-hydroxy-7-azaspiro[4.5]decan-10-yl)methyl)-5-(methylsulfonyl)pyridin-2(1H)-one]
< 500	CSc1cn(CC2(O)CCN(C(=O)[C@H](C)CC3CCCCC3)CC23CCCC3)c(=O)cc1-c1ccccc1 (stereo partly drawn) [Example 78, 1-((7-((R)-3-Cyclohexyl-2-methylpropanoyl)-10-hydroxy-7-azaspiro[4.5]decan-10-yl)methyl)-5-(methylthio)-4-phenylpyridin-2(1H)-one]
< 500	C[C@H](CC1CCCCC1)C(=O)N1CCC(O)(Cn2cc([S+](C)[O-])c(-c3ccccc3)cc2=O)C2(CCCC2)C1 (stereo partly drawn) [Example 79, 1-((7-((R)-3-Cyclohexyl-2-methylpropanoyl)-10-hydroxy-7-azaspiro[4.5]decan-10-yl)methyl)-5-(methylsulfinyl)-4-phenylpyridin-2(1H)-one]
< 500	C[C@H](CC1CCCCC1)C(=O)N1CCC(O)(Cn2cc(S(C)(=O)=O)c(-c3ccccc3)cc2=O)C2(CCCC2)C1 (stereo partly drawn) [Example 80, 1-((7-((R)-3-Cyclohexyl-2-methylpropanoyl)-10-hydroxy-7-azaspiro[4.5]decan-10-yl)methyl)-5-(methylsulfonyl)-4-phenylpyridin-2(1H)-one]
